Experimental data taken from PubChem BioAssay (NCI).
Several values for one entry are separate records, joined by “and”; a condition that tells them apart may be missing. Equal entries are not always repeated.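 Where inhibition never reached the appropriate level, the endpoint shown equals the highest concentration tested. Otherwise, values were interpolated linearly from a five-concentration, 48-hour dose response in 96-well plates. GI50 marks 50% less growth. TGI marks complete inhibition of growth.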

Key:
Assay in all cases: DTP human tumour cell line panel, 48 h
786-0 renal = test system: 786-0 renal
M14 melanoma = test system: M14 melanoma
IGROV1 ovarian = test system: IGROV1 ovarian
CAKI-1 renal = test system: CAKI-1 renal
EKVX NSCLC = test system: EKVX NSCLC
DU-145 prostate = test system: DU-145 prostate
KM12 colon = test system: KM12 colon
A498 renal = test system: A498 renal
NCI-H226 lung = test system: NCI-H226 lung
ACHN renal = test system: ACHN renal

SMILES	TGI (786-0 renal)	TGI (M14 melanoma)	TGI (IGROV1 ovarian)	TGI (CAKI-1 renal)	TGI (EKVX NSCLC)	TGI (DU-145 prostate)	TGI (KM12 colon)	TGI (A498 renal)	TGI (NCI-H226 lung)	TGI (ACHN renal)	GI50 (786-0 renal)	GI50 (M14 melanoma)	GI50 (IGROV1 ovarian)	GI50 (CAKI-1 renal)	GI50 (EKVX NSCLC)	GI50 (DU-145 prostate)	GI50 (KM12 colon)	GI50 (A498 renal)	GI50 (NCI-H226 lung)	GI50 (ACHN renal)
CC#Cc1ccc(-c2ccccc2)s1	> 100 µM	> 100 µM	> 100 µM	> 100 µM	> 100 µM	> 100 µM	> 100 µM	> 100 µM	> 100 µM	> 100 µM										
Cc1cc2c(cc1C)[n+](=O)c(C(=O)c1ccccc1)c(C(F)F)n2[O-]	> 100 µM	> 100 µM	> 100 µM	71.7 µM	44.6 µM	46.4 µM	> 100 µM	91.1 µM	72.9 µM	> 100 µM	32 µM	16.9 µM	15.1 µM	15.5 µM	9.43 µM	10.5 µM	20.5 µM	24.5 µM	25.5 µM	18 µM
CC(=O)OC1(C)N=NC2(CCCCC2)O1 (configuration not stated)	> 100 µM	> 100 µM	> 100 µM	> 100 µM	> 100 µM	> 100 µM	> 100 µM	> 100 µM	> 100 µM	> 100 µM										
O=C1c2c(F)c(F)c(F)c(F)c2C(=O)N1c1ccc(F)cc1F	> 43.8 µM	33.6 µM	19.3 µM	25.5 µM	35.9 µM	23.4 µM	65.5 µM	55.1 µM	50.8 µM	23 µM	11 µM	13.4 µM	6.54 µM	8.44 µM	16.8 µM	8 µM	22.5 µM	25.8 µM	17.2 µM	10.1 µM
COC1=CC(=O)C(C2(OC(C)C)OC(=O)C(Cl)=C2Cl)=CC1=O (configuration not stated)	86.4 µM	> 100 µM		> 100 µM	> 100 µM	> 100 µM	> 100 µM	> 100 µM	> 100 µM	> 100 µM										
O=C(Nc1cccc(C(F)(F)F)c1)Nc1cccc(C(F)(F)F)c1	4.14 µM	3.93 µM	10.3 µM	11.2 µM	7.88 µM	12.4 µM	3.19 µM		3.66 µM	7.6 µM	1.56 µM	1.32 µM	0.868 µM	1.81 µM	0.983 µM	0.92 µM	0.444 µM		1.01 µM	0.422 µM
O=[N+]([O-])c1cc([N+](=O)[O-])c(C(F)(F)F)cc1NN=C(c1ccc(O)cc1)c1ccc(O)cc1	9.54 µM	12.7 µM	14.4 µM	15.3 µM	14.6 µM	13.8 µM	7.85 µM	12.7 µM	23.7 µM	8.23 µM	2.67 µM	3.18 µM	3.79 µM	3.34 µM	2.75 µM	3.79 µM	2.7 µM	3.18 µM	4.03 µM	2.41 µM
c1ccc(Nc2ncc(-c3ccccc3)o2)cc1	> 25 µM	> 25 µM	> 25 µM	> 25 µM	> 25 µM	> 25 µM	> 25 µM	> 25 µM	> 25 µM	> 25 µM	> 25 µM	> 25 µM	> 22 µM	17.8 µM	> 25 µM	> 25 µM	10.7 µM	> 24 µM	> 25 µM	> 25 µM
COc1ccc2ncnc(Nc3ccc(OCc4ccccc4)cc3)c2c1	10.9 µM	> 25 µM	> 22.2 µM	> 17.2 µM	12.9 µM	> 25 µM	> 25 µM	14.1 µM	> 25 µM	> 25 µM	4.76 µM	8.48 µM	6.61 µM	3.85 µM	2.25 µM	8.2 µM	8.67 µM	2.14 µM	8.1 µM	5.88 µM
O=C1OCC2=C1C(c1cccc(Br)c1)c1cc3c(cc1N2CCO)OCCO3 (configuration not stated)	3.66 µM	0.453 µM	> 43.8 µM	7.54 µM	48.7 µM	0.752 µM	2.31 µM	0.466 µM	0.738 µM	> 34 µM	0.0695 µM	0.0421 µM	0.117 µM	0.0522 µM	1.3 µM	0.107 µM	0.0442 µM	0.0167 µM	0.072 µM	0.103 µM
OC(c1cc(C(F)(F)F)nc2c(C(F)(F)F)cccc12)C1CCCCN1 (configuration not stated)	3.77 µM	3.41 µM	5.58 µM	4.67 µM	8.63 µM	6.16 µM	3.59 µM	7.83 µM	3.7 µM	7.05 µM	1.88 µM	1.83 µM	2.21 µM	1.78 µM	2.3 µM	2.76 µM	1.87 µM	1.81 µM	1.8 µM	2.69 µM
Cc1ccc(-c2nc(N3CCNCC3)c3oc(-c4ccc(C)cc4)nc3n2)cc1	3.24 µM	3.69 µM	3.81 µM	> 45.6 µM	> 51.7 µM	3.76 µM	3.2 µM	32 µM	> 64.7 µM	4.78 µM	1.69 µM	1.83 µM	1.92 µM	24.1 µM	> 36.3 µM	1.98 µM	1.66 µM	15.8 µM	> 44.1 µM	2.23 µM
C=CC(=O)Nc1cc(Nc2nccc(-c3cn(C)c4ccccc34)n2)c(OC)cc1N(C)CCN(C)C	2.94 µM and 2.9 µM	3.6 µM and 3.32 µM	7.58 µM and 2.68 µM	6.75 µM and 2.49 µM	4.08 µM and 3.4 µM	12 µM and > 10 µM	5.49 µM and 5.41 µM	3.25 µM and 4.12 µM	13.1 µM and 3.4 µM	1.95 µM and 1.88 µM	1.4 µM and 1.38 µM	1.91 µM and 1.73 µM	1.14 µM and 0.407 µM	0.343 µM and 0.916 µM	0.751 µM and 0.2 µM	1.76 µM and 1.33 µM	2.31 µM and 2.12 µM	1.11 µM and 1.48 µM	3.93 µM and 1.39 µM	0.272 µM and 0.479 µM
COC(=O)c1cc2oc(/C=C3/SC(=S)N(NC(C)=O)C3=O)cc2n1C	42.6 µM	31.8 µM	> 100 µM	36.9 µM	40.5 µM	25.4 µM	> 100 µM	28.1 µM	51.7 µM	43.5 µM	20.1 µM	10.8 µM	23.3 µM	10 µM	11.3 µM	8.76 µM	26.4 µM	10.8 µM	21.5 µM	15.8 µM
